{"source": "patent US12594268B2", "about": "“Methods of treating Fabry disease in patients having a mutation in the GLA gene” (Amicus Therapeutics, Inc., priority 2018, dated 2026)", "format_in_all_cases": "cell-based", "key": {"[1]": {"target": "T1, α-Gal A mutant form R392T (Homo sapiens, UniProt P06280, R392T)", "T1 construct": "expressed in transfected cells; host or cells: HEK-293", "T1 sequence (P06280 32-429 R392T)": "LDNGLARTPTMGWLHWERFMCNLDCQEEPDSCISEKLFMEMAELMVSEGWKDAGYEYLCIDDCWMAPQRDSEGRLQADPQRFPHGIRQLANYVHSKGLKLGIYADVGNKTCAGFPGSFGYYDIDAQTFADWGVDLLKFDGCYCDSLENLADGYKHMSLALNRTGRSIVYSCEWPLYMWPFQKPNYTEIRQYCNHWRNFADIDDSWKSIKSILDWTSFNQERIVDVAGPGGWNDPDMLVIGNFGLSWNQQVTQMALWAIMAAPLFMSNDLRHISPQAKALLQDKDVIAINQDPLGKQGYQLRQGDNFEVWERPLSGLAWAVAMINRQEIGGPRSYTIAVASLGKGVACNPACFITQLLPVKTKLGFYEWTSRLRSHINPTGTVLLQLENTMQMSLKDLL", "test": "α-Gal A activity in lysates of transfected HEK-293 cells, R392T", "method": "(§1) Baseline and 10 μM migalastat α-Gal A activity: Differences in the α-Gal A activity between lysates incubated in the absence and presence of 10 μM migalastat were determined using a one-tailed, Mann Whitney U test; an increase at 10 μM migalastat with a p<0.05 was considered significant.\n(§2) 10 μM migalastat α-Gal A activity (% WT)=(α-Gal A activity in mutant transfected cell lysates incubated with 10 μM migalastat÷α-Gal A activity in wild-type transfected cell lysates without migalastat)*100.\n(§3) Absolute increase (% WT)=is the 10 μM migalastat α-Gal A activity (% WT) minus the baseline α-Gal A activity (% WT).\n(§4) Relative increase is the 10 μM migalastat α-Gal A activity in mutant transfected cell lysates÷baseline α-Gal A activity in mutant transfected cell lysates incubated without migalastat."}, "α-Gal A mutant form Q57R": {"target": "T2, α-Gal A mutant form Q57R (Homo sapiens, UniProt P06280, Q57R)", "T2 construct": "expressed in transfected cells; host or cells: HEK-293", "T2 sequence (P06280 32-429 Q57R)": "T1 sequence (P06280 32-429 R392T) with Q26R, T361R", "test": "α-Gal A activity in lysates of transfected HEK-293 cells, Q57R", "method": "as §1, §2, §3, §4"}, "[2]": {"target": "T3, α-Gal A mutant form Q107R (Homo sapiens, UniProt P06280, Q107R)", "T3 construct": "expressed in transfected cells; host or cells: HEK-293", "T3 sequence (P06280 32-429 Q107R)": "T1 sequence (P06280 32-429 R392T) with Q76R, T361R", "test": "α-Gal A activity in lysates of transfected HEK-293 cells, Q107R", "method": "as §1, §2, §3, §4"}, "[3]": {"target": "T4, α-Gal A mutant form P259Q (Homo sapiens, UniProt P06280, P259Q)", "T4 construct": "expressed in transfected cells; host or cells: HEK-293", "T4 sequence (P06280 32-429 P259Q)": "T1 sequence (P06280 32-429 R392T) with P228Q, T361R", "test": "α-Gal A activity in lysates of transfected HEK-293 cells, P259Q", "method": "as §1, §2, §3, §4"}, "[4]": {"target": "T5, α-Gal A mutant form E338V (Homo sapiens, UniProt P06280, E338V)", "T5 construct": "expressed in transfected cells; host or cells: HEK-293", "T5 sequence (P06280 32-429 E338V)": "T1 sequence (P06280 32-429 R392T) with E307V, T361R", "test": "α-Gal A activity in lysates of transfected HEK-293 cells, E338V", "method": "as §1, §2, §3, §4"}, "[5]": {"details": "10 μM migalastat minus baseline"}, "[6]": {"details": "10 μM migalastat ÷ baseline activity"}, "[7]": {"details": "HEK-293 lysates, 10 μM migalastat, 5 days, mean ± SEM"}}, "note": "Positions count from the first letter of the chain named.", "data": [{"smiles": "OC[C@H]1NC[C@H](O)[C@@H](O)[C@H]1O", "note": "[migalastat, (2R,3S,4R,5S)-2-(hydroxymethyl) piperdine-3,4,5-triol]", "values": [{"measurement": "Absolute increase (% WT)", "setting": "[1]; [5]", "result": 21.3, "unit": "% WT"}, {"measurement": "Relative increase", "setting": "[1]; [6]", "result": 1.22}, {"measurement": "10 nM migalastat α-Gal A activity", "setting": "[1]; HEK-293 lysates, 10 nM migalastat as printed, 5 days, mean ± SEM", "result": "36679 ± 1896", "unit": "nmol/mg/h"}, {"measurement": "10 μM migalastat α-Gal A activity (% WT)", "setting": "[1]; [7]", "result": "125.9 ± 6.2", "unit": "% WT"}, {"measurement": "Absolute increase (% WT)", "setting": "α-Gal A mutant form Q57R; [5]", "result": 24.0, "unit": "% WT"}, {"measurement": "Relative increase", "setting": "α-Gal A mutant form Q57R; [6]", "result": 1.30}, {"measurement": "10 μM migalastat α-Gal A activity", "setting": "α-Gal A mutant form Q57R; [7]", "result": "26357 ± 916", "unit": "nmol/mg/h"}, {"measurement": "10 μM migalastat α-Gal A activity (% WT)", "setting": "α-Gal A mutant form Q57R; [7]", "result": "105.0 ± 3.0", "unit": "% WT"}, {"measurement": "Absolute increase (% WT)", "setting": "[2]; [5]", "result": 21.5, "unit": "% WT"}, {"measurement": "Relative increase", "setting": "[2]; [6]", "result": 1.27}, {"measurement": "10 μM migalastat α-Gal A activity", "setting": "[2]; [7]", "result": "31193 ± 2248", "unit": "nmol/mg/h"}, {"measurement": "10 μM migalastat α-Gal A activity (% WT)", "setting": "[2]; [7]", "result": "109.8 ± 8.4", "unit": "% WT"}, {"measurement": "Absolute increase (% WT)", "setting": "[3]; [5]", "result": 36.1, "unit": "% WT"}, {"measurement": "Relative increase", "setting": "[3]; [6]", "result": 1.90}, {"measurement": "10 μM migalastat α-Gal A activity", "setting": "[3]; [7]", "result": "25935 ± 2020", "unit": "nmol/mg/h"}, {"measurement": "10 μM migalastat α-Gal A activity (% WT)", "setting": "[3]; [7]", "result": "73.6 ± 5.0", "unit": "% WT"}, {"measurement": "Absolute increase (% WT)", "setting": "[4]; [5]", "result": 24.7, "unit": "% WT"}, {"measurement": "Relative increase", "setting": "[4]; [6]", "result": 1.83}, {"measurement": "10 μM migalastat α-Gal A activity", "setting": "[4]; [7]", "result": "21807 ± 845", "unit": "nmol/mg/h"}, {"measurement": "10 μM migalastat α-Gal A activity (% WT)", "setting": "[4]; [7]", "result": "54.8 ± 2.2", "unit": "% WT"}]}]}
